Data reported in ChEMBL document CHEMBL1201862, “PubChem BioAssay data set” (2004).
Where a name gives a salt, the structure may show the parent alone. Activity calls are given as the source filed them.

Key:
[1] = biological target: Disintegrin and metalloproteinase domain-containing protein 17 (Homo sapiens, UniProt P78536); assay: exosite inhibitors of ADAM17, dose response, biochemical (AID 743260)
[2] = biological target: Platelet-activating factor acetylhydrolase (Mus musculus, UniProt Q60963); assay: Late stage assay provider results from the probe development effort to identify inhibitors of pPAFAH: fluorescence-based dose-response biochemical gel-based competitive Activity-Based Protein Profiling (ABPP) assay for SAR compounds.; type: functional
[3] = biological target: Platelet-activating factor acetylhydrolase (Homo sapiens, UniProt Q13093); assay: Late stage assay provider results from the probe development effort to identify inhibitors of plasma platelet activating factor acetylhydrolase (pPAFAH): fluorescence-based dose response biochemical gel-based competitive Activity-Based Protein Profiling (ABPP) inhibition of human pPAFAH.; type: functional, cell-free
[4] = ADAM10 protease inhibitors, dose response, selectivity assay for ADAM17 exosite inhibitor project, biochemical, FRET peptide substrate, recombinant human ADAM10 (AID 743259);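 further: ADAM10 enzyme cleaving a FRET peptide substrate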
[5] = test system: Vero; assay: Vero cell toxicity, dose response, cytotoxicity control, plate reader, cherry-pick samples (AID 687020); type: functional, cell-based; details: Chlorocebus sabaeus
[6] = biological target: 5-hydroxytryptamine receptor 2A (Mus musculus, UniProt P35363); type: functional, cell-based;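 further: CHO-K1 cells with tagged receptor and beta-arrestin; agonist potency measured as compound-induced activation of the receptor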
[7] = biological target: Mu-type opioid receptor (Homo sapiens, UniProt P35372); type: functional, cell-based;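 further: U2OS cells with beta-arrestin recruitment to OPRM1 by beta-gal complementation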
[8] = biological target: T1, Low molecular weight phosphotyrosine protein phosphatase (Homo sapiens, UniProt P24666); type: functional; details: read-out: IC50_Mean
T1 sequence (P24666 whole entry): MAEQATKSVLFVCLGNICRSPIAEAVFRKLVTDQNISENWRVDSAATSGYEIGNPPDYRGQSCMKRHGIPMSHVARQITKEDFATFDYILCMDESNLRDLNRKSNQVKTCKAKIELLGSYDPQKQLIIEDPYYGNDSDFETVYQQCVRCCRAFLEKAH

[9] = biological target: T2, Carboxy-terminal domain RNA polymerase II polypeptide A small phosphatase 1 (Homo sapiens, UniProt Q9GZU7); assay: inhibitors of CTDSP1, concentration-response testing, biochemical assay, absorbance-based, actives from ultra-high-throughput screening (AID 540297); type: functional
T2 sequence (Q9GZU7 whole entry): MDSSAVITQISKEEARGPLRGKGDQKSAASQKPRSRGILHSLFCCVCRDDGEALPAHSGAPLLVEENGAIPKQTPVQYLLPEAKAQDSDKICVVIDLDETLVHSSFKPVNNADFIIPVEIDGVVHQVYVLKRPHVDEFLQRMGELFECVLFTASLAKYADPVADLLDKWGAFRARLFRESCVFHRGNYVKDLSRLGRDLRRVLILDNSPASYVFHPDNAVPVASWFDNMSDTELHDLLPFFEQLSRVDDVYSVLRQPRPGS

[10] = biological target: 72 kDa type IV collagenase (Homo sapiens, UniProt P08253); assay: Dose Response validation of uHTS RPN11 inhibitor hits using a MMP-2 Fluorescence assay.; type: functional
[11] = biological target: T3, Tyrosine-protein phosphatase non-receptor type 22 (Homo sapiens, UniProt Q9Y2R2); assay: LYP phosphatase inhibition for selectivity, dose response, selectivity assay for LMPTP inhibitor project, biochemical, fluorescence, LYP catalytic domain (AID 652006); type: functional; details: read-out: IC50_Mean
T3 sequence (Q9Y2R2 whole entry): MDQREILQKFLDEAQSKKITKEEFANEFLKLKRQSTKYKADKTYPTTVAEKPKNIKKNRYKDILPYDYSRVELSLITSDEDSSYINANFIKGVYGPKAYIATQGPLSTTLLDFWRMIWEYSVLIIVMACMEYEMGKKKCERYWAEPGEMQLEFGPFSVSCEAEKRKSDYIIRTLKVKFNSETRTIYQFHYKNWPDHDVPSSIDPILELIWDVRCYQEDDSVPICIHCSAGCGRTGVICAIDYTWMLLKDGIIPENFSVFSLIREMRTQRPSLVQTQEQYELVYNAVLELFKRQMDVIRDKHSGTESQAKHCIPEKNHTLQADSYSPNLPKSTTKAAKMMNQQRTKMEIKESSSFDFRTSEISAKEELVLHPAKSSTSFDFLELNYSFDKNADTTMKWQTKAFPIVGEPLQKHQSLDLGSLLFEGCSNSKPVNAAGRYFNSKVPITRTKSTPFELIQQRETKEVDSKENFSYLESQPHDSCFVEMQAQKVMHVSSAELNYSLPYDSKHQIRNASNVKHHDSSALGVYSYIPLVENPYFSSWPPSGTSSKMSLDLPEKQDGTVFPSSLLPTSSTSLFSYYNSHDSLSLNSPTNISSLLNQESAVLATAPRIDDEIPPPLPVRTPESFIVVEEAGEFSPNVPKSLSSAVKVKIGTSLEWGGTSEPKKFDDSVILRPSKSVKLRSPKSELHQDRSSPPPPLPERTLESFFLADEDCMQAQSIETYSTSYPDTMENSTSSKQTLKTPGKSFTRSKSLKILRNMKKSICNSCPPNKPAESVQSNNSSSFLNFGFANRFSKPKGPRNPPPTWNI

[12] = biological target: T1, Low molecular weight phosphotyrosine protein phosphatase; type: functional; details: read-out: IC50_Mean; remark: listed apart in the source
[13] = biological target: 26S proteasome non-ATPase regulatory subunit 14 (Homo sapiens, UniProt O00487); assay: inhibition of proteasome subunit RPN11 – biochemical, fluorescence polarization, uHTS hits, confirmation (AID 602368); type: functional
[14] = biological target: Prothrombin (Bos taurus, UniProt P00735); assay: thrombin inhibition, dose response, biochemical, fluorescence polarization, uHTS hits (AID 602369); type: functional
[15] = Luminescence Cell-Based Dose Retest to Confirm Inhibitors of Cancer Stem Cells. [Related pubchem assays (depositor defined):AID2717, AID2721]; type: functional; details: Homo sapiens
[16] = biological target: T4, DNA repair protein RAD52 homolog (Homo sapiens, UniProt P43351); type: functional, biochemical
T4 sequence (P43351 whole entry): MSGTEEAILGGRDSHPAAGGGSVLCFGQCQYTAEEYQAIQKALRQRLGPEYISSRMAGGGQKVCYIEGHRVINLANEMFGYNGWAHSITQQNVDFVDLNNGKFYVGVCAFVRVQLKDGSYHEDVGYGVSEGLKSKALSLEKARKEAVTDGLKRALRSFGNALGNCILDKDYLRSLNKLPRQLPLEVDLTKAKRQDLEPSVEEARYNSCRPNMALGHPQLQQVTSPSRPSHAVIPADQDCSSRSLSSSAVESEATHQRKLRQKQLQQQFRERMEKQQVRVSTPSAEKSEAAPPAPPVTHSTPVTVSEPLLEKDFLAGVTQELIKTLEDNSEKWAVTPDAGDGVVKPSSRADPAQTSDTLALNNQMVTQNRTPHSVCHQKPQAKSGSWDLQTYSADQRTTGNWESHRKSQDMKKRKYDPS

[17] = Shn3 3'UTR reporter inhibitors, dose response, cell-based, Clone20 osteoblasts, firefly luciferase, cherry-picked (AID 624132); type: functional;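 further: firefly luciferase luminescence from reporter carrying the Shn3 3'UTR in osteoblasts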
[18] = biological target: T5, DNA repair and recombination protein RAD54-like (Homo sapiens, UniProt Q92698); assay: inhibitors of human RAD54 branch migration, confirmation, biochemical, fluorescence, cherry-picked samples, dose series (AID 651657); type: functional
T5 sequence (Q92698 whole entry): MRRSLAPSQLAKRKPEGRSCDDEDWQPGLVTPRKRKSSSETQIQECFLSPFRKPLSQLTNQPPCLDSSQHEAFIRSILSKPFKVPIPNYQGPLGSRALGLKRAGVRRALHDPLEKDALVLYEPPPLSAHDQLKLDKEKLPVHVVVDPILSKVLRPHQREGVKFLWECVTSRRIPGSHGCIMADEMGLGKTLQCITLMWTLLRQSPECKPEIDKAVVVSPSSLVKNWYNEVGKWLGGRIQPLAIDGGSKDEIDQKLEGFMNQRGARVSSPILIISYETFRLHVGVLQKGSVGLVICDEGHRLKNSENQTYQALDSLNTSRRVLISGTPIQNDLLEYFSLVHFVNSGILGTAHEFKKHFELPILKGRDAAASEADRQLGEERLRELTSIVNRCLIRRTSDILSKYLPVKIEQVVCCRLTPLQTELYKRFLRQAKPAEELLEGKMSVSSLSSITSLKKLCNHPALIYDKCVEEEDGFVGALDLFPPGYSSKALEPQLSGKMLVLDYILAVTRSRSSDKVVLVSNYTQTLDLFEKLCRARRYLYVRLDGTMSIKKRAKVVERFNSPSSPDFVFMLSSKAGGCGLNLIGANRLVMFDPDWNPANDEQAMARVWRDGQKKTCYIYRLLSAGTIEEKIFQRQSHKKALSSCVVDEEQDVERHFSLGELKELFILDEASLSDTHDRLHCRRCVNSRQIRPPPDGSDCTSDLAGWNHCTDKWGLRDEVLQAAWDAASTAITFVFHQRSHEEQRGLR

[19] = biological target: FAD-linked sulfhydryl oxidase ALR (Homo sapiens, UniProt P55789); assay: inhibitors of human ALR sulfhydryl oxidase, dose response, biochemical, H2O2 detection, luminescence, cherry-pick (AID 493248)
[20] = MDA-MB-231 cell growth inhibition, dose response, cytotoxicity control for RAD54 inhibitor project, CellTiter-Glo luminescence, cherry-pick (AID 651692); type: functional, cell-based
[21] = DNA binding of candidate compounds, dose response, artefact control for RAD54 inhibitor project, biochemical, fluorescence polarization, cherry-pick (AID 651673); type: functional
[22] = HepG2 cell cytotoxicity, dose response, cytotoxicity control for Shn3 inhibitor project, CellTiter-Glo, cherry-picked (AID 624134); type: functional, cell-based
[23] = cytotoxicity in HEK-293T cells, dose response, cytotoxicity control for TCR NF-kB inhibitor project, luminescence, T-cell screen hits (AID 489026); type: functional, cell-based;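 further: cells exposed to compound about 14 hours before the viability readout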
[24] = control 3'UTR Renilla luciferase suppression, dose response, counter-screen for Shn3 inhibitor project, cell-based, Clone20-Shn3RL, cherry-picked (AID 624133); type: functional
[25] = THP-1 cell cytotoxicity, dose response, cytotoxicity control for Vif-APOBEC3G degradation inhibitor project, THP-1 cells (AID 1117359); type: functional; details: Human immunodeficiency virus 1, THP-1
[26] = Counterscreen for activators of the function of SWI/SNF related, matrix associated, actin dependent regulator of chromatin, subfamily a, member 2 (SMARCA2, BRM): Luminescence-based cell-based high throughput dose response assay to identify non-selective compounds using the VP16 reporter assay.; type: functional
[27] = biological target: T6, Coagulation factor XII (Homo sapiens, UniProt P00748); type: functional;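 further: activated factor XIIa alpha cleaving a fluorogenic AMC peptide substrate; inhibitor potency from loss of enzyme activity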
T6 sequence (P00748 whole entry): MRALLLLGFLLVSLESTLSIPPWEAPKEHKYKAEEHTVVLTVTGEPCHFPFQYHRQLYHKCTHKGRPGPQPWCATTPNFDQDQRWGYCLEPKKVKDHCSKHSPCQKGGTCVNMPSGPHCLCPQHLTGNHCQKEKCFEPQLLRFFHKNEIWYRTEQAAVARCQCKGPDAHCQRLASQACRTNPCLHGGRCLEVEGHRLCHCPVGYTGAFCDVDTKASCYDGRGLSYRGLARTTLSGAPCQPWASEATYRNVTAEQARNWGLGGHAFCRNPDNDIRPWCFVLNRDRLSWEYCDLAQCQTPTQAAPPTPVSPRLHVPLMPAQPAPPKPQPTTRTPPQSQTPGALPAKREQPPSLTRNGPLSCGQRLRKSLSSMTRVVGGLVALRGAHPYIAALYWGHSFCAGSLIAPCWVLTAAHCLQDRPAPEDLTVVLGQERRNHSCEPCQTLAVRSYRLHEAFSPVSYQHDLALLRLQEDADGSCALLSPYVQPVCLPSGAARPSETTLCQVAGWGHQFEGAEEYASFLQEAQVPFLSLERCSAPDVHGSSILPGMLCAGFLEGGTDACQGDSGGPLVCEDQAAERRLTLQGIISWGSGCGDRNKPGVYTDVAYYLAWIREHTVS

[28] = biological target: SWI/SNF-related matrix-associated actin-dependent regulator of chromatin subfamily A member 2 (Homo sapiens, UniProt P51531); assay: Luminescence-based cell-based high throughput dose response assay to identify activators of the function of SWI/SNF related, matrix associated, actin dependent regulator of chromatin, subfamily a, member 2 (SMARCA2, BRM).; type: functional
[29] = miR-122 activators in hepatoma reporter cells, dose response, cell-based, Huh7 psiCHECK-miR122, Renilla luciferase, cherry-picked (AID 651956); type: functional;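 further: huh7 hepatoma cells stably carrying a psiCHECK-2 miR-122 sensor plasmid; renilla luciferase signal reporting endogenous miR-122 activity after 48 h compound exposure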

Chain of 26S proteasome non-ATPase regulatory subunit 14 (O00487 whole entry): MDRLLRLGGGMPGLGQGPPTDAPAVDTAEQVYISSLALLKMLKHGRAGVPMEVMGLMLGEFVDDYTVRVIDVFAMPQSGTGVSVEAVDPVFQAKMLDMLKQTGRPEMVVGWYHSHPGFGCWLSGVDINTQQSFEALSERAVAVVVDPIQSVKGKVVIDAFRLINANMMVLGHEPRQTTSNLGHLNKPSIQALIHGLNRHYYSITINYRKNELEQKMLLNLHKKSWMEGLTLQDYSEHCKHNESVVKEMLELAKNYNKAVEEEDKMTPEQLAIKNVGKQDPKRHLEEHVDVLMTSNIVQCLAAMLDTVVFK
Chain of Platelet-activating factor acetylhydrolase (Homo sapiens, UniProt Q13093) (Q13093 whole entry): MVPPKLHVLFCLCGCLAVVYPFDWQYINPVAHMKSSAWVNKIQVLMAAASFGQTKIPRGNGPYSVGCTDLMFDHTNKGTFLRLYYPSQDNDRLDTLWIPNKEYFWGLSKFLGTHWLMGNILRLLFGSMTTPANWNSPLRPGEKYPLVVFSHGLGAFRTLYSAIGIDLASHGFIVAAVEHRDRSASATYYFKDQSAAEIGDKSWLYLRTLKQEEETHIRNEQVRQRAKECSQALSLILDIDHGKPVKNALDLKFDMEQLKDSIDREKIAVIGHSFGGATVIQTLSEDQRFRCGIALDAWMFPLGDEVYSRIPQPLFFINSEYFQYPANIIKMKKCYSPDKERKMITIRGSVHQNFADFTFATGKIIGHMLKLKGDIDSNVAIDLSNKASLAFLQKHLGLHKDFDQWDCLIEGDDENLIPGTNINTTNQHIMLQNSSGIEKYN
Chain of Mu-type opioid receptor (P35372 whole entry): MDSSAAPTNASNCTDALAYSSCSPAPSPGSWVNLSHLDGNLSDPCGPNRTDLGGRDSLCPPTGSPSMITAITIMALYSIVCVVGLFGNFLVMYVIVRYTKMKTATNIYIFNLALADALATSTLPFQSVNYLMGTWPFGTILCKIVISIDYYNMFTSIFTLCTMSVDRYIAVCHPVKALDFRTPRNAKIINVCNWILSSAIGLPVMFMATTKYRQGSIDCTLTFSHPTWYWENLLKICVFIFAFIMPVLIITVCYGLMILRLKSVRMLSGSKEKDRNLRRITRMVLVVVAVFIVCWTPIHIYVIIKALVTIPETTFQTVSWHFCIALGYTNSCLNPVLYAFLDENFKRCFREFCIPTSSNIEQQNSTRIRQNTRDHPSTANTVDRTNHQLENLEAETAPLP
Chain of Platelet-activating factor acetylhydrolase (Mus musculus, UniProt Q60963) (Q60963 whole entry): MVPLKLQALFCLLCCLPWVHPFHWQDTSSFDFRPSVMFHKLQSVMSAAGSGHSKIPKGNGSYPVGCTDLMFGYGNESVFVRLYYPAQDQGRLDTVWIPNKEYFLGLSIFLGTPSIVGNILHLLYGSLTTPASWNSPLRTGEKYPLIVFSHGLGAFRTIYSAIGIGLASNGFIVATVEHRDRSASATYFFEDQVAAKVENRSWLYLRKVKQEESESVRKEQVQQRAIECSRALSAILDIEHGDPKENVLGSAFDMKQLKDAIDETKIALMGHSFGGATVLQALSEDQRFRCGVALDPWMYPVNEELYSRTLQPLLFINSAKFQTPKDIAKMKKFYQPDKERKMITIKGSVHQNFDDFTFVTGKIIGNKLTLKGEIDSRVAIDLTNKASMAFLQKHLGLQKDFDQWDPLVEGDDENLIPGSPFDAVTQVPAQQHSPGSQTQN
Chain of SWI/SNF-related matrix-associated actin-dependent regulator of chromatin subfamily A member 2 (P51531 whole entry): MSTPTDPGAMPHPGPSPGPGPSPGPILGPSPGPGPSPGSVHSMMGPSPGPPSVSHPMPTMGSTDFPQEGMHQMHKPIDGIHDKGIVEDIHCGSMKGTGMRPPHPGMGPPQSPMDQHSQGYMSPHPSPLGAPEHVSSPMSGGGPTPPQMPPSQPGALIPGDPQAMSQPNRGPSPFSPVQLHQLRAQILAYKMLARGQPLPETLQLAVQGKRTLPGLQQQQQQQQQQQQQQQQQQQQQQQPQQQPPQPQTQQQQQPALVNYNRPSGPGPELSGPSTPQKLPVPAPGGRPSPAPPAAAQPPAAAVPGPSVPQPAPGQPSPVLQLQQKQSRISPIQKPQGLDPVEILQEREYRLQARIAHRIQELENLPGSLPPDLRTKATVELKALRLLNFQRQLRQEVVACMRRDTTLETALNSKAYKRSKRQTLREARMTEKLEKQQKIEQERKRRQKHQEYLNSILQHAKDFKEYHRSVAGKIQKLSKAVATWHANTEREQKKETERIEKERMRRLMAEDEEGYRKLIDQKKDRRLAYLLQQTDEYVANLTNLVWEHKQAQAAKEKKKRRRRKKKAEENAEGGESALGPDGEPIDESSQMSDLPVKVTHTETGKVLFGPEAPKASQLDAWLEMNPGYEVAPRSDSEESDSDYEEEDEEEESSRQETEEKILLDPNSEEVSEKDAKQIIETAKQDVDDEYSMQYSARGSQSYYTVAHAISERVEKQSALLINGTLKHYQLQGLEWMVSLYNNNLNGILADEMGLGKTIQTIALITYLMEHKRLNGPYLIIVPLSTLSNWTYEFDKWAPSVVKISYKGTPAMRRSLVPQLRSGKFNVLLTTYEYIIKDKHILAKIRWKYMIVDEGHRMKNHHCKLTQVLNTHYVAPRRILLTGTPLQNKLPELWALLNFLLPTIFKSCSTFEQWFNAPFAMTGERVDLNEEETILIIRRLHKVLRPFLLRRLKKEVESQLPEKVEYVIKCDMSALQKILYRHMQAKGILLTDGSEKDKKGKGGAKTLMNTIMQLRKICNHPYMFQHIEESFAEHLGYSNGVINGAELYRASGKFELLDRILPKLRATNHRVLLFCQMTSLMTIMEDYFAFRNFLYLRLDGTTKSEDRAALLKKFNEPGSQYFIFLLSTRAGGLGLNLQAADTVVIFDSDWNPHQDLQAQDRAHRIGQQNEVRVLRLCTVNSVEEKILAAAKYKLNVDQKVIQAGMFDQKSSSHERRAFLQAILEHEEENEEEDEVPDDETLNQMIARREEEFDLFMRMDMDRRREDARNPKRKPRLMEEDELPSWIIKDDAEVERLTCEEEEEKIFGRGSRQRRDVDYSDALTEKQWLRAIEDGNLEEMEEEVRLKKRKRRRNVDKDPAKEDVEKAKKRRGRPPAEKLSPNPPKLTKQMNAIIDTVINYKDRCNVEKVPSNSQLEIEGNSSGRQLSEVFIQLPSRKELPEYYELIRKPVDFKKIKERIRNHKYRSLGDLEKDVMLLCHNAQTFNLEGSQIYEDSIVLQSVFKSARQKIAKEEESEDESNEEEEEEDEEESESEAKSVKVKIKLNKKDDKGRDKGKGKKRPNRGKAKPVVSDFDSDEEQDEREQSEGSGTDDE
Chain of 72 kDa type IV collagenase (P08253 whole entry, the tested form may be a part): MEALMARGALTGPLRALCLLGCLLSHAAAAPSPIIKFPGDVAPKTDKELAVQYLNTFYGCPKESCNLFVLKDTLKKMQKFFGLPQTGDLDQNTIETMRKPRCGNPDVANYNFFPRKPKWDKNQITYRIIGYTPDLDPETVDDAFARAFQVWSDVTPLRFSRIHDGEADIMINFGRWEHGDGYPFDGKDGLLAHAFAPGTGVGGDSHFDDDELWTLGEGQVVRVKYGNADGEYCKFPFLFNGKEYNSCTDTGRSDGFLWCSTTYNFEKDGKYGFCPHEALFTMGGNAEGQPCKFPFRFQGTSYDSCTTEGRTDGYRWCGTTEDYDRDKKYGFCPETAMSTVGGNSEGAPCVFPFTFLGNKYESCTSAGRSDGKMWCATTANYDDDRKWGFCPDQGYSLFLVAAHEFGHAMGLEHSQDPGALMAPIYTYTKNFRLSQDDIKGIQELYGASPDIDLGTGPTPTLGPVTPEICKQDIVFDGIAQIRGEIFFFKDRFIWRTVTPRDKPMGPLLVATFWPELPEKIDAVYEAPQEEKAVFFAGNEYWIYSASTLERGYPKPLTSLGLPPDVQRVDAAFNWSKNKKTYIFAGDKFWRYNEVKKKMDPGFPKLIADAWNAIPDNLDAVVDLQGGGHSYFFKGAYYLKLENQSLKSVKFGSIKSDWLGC
Chain of Disintegrin and metalloproteinase domain-containing protein 17 (P78536 whole entry, the tested form may be a part): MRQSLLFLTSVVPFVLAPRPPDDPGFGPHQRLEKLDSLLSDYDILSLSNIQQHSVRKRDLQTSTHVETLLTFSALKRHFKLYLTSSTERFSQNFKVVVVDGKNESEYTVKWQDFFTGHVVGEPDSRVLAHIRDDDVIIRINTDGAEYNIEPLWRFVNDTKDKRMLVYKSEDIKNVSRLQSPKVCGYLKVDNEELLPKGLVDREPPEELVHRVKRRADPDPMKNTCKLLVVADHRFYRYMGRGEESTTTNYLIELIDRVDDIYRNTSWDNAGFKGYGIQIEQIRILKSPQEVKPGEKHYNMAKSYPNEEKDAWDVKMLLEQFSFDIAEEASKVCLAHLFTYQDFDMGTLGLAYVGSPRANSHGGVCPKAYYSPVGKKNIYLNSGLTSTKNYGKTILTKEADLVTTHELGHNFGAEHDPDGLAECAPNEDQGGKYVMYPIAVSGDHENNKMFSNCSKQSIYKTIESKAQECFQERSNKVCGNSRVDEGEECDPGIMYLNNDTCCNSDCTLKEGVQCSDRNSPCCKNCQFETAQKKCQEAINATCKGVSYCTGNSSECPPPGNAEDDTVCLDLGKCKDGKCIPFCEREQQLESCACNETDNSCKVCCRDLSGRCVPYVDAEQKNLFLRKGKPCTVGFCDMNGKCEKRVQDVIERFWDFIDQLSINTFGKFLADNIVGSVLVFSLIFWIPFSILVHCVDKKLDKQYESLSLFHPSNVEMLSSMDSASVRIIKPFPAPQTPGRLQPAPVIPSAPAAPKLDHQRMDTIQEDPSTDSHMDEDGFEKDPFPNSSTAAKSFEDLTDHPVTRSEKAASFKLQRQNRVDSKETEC
Chain of FAD-linked sulfhydryl oxidase ALR (P55789 whole entry): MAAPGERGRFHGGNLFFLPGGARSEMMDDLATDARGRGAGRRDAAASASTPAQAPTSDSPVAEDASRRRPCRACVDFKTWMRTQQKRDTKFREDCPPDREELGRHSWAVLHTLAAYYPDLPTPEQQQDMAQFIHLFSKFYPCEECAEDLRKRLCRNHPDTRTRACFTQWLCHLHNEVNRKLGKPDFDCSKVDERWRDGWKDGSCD

For `Cc1cc(N2CCN(C(=O)Oc3ccc(-c4ccccc4)cn3)CC2)c2ccccc2n1`, the IC50 [1] was > 69.4 µM (inactive), the IC50 [2] was 0.031 µM (active) and the IC50 [3] was 0.006 µM (active). The IC50 [4] was > 69.4 µM (inactive).

In the case of `Cc1cc(F)ccc1C(O)c1nc(-c2ccccc2C(F)(F)F)c[nH]1` (centres undefined), the AC50 [5] is reported as 33.5 µM (active).

For `Cc1ccc(C(=O)N/C(=C/c2ccccc2)C(=O)NC(Cc2ccccc2)C(=O)O)cc1` (centres undefined), the EC50 [6] was 76.1 µM (inactive) and the EC50 [7] was 92.5 µM (inactive).

With `O=C(/C=C/c1ccccc1Cl)Nc1ccc2c(c1)C(=O)NC2=O` the IC50 [8] was 15.8 µM (active), the IC50 [9] was 3.73 µM (active) and the IC50 [10] was 12 µM (active). The IC50 [11] was 29 µM (inactive), the IC50 [12] was 12 µM (active) and the IC50 [13] was 17.9 µM (active). The IC50 [14] was 61.6 µM (active).

With `COc1cc(NS(C)(=O)=O)ccc1Nc1c2ccccc2nc2ccccc12` [AMSACRINE HYDROCHLORIDE] the AC50 [15] was 0.91 µM (active), the AC50 [16] was 6.83 µM (active) and the AC50 [17] was 1.32 µM (active). The AC50 [18] was 11.6 µM (active), the AC50 [19] was 16 µM (active) and the AC50 [20] was 23.3 µM (active). The AC50 [21] was 39.4 µM (active), the AC50 [22] was 18.9 µM (active) and the IC50 [23] was > 80 µM (inactive). For the same molecule, the AC50 [24] was 7.09 µM (active).

In the case of `CC1(C)CC(=O)C(=NNc2ccc(Br)cc2)C(=O)C1`, the CC50 [25] is reported as > 40 µM (active), the EC50 [26] is reported as > 91.1 µM (inactive) and the IC50 [27] is reported as > 50 µM (inactive). The EC50 [28] was > 91.1 µM (inactive).

With `CNC(=O)C[C@H]1CC[C@@H]2[C@@H](COc3ccc(NC(=O)Nc4ccc(Cl)cc4)cc3C(=O)N2C)O1` the AC50 [29] was 29 µM (active).
